The term Kd denotes the concentration at which binding is half-saturated.

The target of the experiment is T1, ATPase family AAA domain-containing protein 2 (Homo sapiens, UniProt Q6PL18).
T1 sequence (Q6PL18 whole entry): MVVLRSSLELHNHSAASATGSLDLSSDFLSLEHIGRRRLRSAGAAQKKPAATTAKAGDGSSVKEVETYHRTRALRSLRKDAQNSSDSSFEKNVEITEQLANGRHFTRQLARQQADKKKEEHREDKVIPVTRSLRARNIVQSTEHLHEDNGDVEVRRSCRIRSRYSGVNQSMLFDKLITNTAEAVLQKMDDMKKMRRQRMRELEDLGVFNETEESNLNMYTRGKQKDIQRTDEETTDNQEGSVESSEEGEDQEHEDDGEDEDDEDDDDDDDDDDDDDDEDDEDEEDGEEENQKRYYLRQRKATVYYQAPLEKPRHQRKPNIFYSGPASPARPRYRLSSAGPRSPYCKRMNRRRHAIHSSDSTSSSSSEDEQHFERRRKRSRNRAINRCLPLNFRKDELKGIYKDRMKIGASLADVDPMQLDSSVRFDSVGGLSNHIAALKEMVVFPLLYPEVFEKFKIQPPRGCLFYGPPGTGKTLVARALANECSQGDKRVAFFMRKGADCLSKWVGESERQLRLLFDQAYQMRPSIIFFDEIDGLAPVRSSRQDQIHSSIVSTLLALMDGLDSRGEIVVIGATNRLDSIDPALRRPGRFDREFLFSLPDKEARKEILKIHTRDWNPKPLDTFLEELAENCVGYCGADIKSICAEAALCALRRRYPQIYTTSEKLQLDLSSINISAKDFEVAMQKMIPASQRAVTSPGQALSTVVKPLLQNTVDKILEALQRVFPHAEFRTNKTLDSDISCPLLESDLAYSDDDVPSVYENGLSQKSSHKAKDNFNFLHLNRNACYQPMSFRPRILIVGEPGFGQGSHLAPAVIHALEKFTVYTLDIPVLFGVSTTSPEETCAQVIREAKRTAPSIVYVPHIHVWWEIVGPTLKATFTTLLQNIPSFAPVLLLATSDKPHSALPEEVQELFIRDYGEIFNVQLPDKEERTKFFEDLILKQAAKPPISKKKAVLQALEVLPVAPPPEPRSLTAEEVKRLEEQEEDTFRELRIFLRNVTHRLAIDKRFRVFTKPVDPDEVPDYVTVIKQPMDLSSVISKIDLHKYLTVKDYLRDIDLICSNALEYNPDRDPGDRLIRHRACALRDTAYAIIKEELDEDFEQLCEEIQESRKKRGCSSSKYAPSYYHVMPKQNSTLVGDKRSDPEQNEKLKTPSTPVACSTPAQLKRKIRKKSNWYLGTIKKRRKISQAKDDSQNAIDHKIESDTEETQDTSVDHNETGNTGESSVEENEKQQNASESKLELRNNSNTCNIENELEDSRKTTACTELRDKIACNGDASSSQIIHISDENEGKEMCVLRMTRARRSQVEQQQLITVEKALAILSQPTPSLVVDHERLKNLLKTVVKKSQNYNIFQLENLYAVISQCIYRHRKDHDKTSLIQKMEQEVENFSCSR
The experiment can be described thus: Binding affinity to human ATAD2 (979 to 1108 aa) expressed in Escherichia coli BL21 (DE3) by SOFAST-HMQC NMR spectroscopy.

As to `Nc1cccc(-c2n[nH]c(-c3ccccc3)n2)c1`, binding was put at a Kd of 350 µM.

`Cc1cc2c(cc1N)n(C)c(=O)n2C` came in with a Kd of 600 µM.

The values above are taken from ChEMBL document CHEMBL3351361, “Fragment-based screening of the bromodomain of ATAD2” (J Med Chem, 2014).
